In assay [1] the target is T1, human DRG VR1 (Homo sapiens, UniProt Q8NER1, I585V/K332R/M315I).
T1 construct: The two primers were designed to amplify the entire coding region; expressed in transfected cells; CHO is stated only for the VR1A construct
The experiment in a line: Ca2+ influx assay, stable cell line expressing VR1. Type of assay: cell-based. To be noted: for IC50: VR1 stable cell line, N=4, read-out: IC50 Capsazepine. Here is the method:
(§1) B. Generation of a stable cell line: The VR1A construct was transfected into 80-90% confluent cultures of CHO cells grown in F12 media containing 10% fetal bovine serum (Hyclone Laboratories). After 48 hours, cells were transferred to selection medium (growth medium containing 1 mg/ml of G418) and 15 days later individual G418 resistant foci were isolated and expanded. In order to identify a functional cell line, the expanded cells were plated in a 96 well plate and grown to confluency. […] Functional clones were retested, expanded and cryopreserved.
(§2) C. Calcium influx assay: The stable cell lines, expressing human DRG VR1 and human pancreas VR1A, were seeded the day before the assay at 40,000 cells/well density in 96 well black clear bottom assay plates (Corning Inc., Corning, N.Y.). On the day of the assay, the medium of cell plates was changed to 0.2 ml of 1× Hanks' balanced salt solution (Invitrogen, Carlsbad, Calif.) containing 20 mM HEPES, pH 7.4, 1.3 mM freshly made probenecid and 3 μM Fluo-3AM (Molecular Devices, Sunnyvale, Calif.). The cell plates were incubated at 37° C. for one hour and left at room temperature for 30 minutes. Serial dilutions of agonist compounds, starting at 100 μM, were set up in 96 well plates and subsequently used for the analysis. Both plates were loaded to the FlexStation in order to run the assay. The excitation wavelength was 485 nM and the emission wavelength was 583 nM.

The target of assay [2] is T2, human pancreas VR1A (Homo sapiens, UniProt Q8NER1, I585V/M315I/M552V).
T2 construct: VR1A codes for a VR1-like protein, 837 amino acids long, with 148 unique residues at the N-terminal end; expressed in transfected cells; host or cells: CHO
The experiment in a line: Ca2+ influx assay, stable cell line expressing VR1A. The format is cell-based. Here is the method: as §1, §2

Molecules are shown by their SMILES. Read-outs that look alike come from different tables or passages of the source.

As a reminder, the IC50 is the concentration at which inhibition is half-maximal. As usually defined, the EC50 is the concentration giving half of the maximal effect. Higher therefore signals weaker potency.

T1 sequence (Q8NER1 whole entry M315I/K332R/I585V): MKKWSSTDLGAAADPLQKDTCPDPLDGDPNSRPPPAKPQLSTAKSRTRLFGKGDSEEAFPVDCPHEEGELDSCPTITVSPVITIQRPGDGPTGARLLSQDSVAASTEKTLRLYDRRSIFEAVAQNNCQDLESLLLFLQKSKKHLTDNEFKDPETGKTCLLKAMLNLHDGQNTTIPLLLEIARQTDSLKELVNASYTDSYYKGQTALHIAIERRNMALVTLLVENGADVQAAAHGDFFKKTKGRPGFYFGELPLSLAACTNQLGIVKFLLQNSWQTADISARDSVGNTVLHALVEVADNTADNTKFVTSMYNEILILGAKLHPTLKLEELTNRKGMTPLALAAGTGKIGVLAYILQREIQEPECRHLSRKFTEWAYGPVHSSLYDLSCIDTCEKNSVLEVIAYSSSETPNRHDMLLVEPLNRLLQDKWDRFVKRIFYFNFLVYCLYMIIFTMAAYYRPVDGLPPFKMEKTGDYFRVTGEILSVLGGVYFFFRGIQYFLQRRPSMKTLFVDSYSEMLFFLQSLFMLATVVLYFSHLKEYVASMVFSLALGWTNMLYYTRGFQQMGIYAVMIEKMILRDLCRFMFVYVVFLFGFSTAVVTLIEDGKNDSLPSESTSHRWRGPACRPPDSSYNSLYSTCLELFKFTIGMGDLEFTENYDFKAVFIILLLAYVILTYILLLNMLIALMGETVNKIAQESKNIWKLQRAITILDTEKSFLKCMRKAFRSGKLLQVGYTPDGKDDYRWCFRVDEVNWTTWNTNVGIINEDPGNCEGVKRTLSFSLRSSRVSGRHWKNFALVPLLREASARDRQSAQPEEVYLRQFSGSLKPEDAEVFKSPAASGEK
T2 sequence (Q8NER1 1-837 isoform Q8NER1-3 M313I/M550V/I583V): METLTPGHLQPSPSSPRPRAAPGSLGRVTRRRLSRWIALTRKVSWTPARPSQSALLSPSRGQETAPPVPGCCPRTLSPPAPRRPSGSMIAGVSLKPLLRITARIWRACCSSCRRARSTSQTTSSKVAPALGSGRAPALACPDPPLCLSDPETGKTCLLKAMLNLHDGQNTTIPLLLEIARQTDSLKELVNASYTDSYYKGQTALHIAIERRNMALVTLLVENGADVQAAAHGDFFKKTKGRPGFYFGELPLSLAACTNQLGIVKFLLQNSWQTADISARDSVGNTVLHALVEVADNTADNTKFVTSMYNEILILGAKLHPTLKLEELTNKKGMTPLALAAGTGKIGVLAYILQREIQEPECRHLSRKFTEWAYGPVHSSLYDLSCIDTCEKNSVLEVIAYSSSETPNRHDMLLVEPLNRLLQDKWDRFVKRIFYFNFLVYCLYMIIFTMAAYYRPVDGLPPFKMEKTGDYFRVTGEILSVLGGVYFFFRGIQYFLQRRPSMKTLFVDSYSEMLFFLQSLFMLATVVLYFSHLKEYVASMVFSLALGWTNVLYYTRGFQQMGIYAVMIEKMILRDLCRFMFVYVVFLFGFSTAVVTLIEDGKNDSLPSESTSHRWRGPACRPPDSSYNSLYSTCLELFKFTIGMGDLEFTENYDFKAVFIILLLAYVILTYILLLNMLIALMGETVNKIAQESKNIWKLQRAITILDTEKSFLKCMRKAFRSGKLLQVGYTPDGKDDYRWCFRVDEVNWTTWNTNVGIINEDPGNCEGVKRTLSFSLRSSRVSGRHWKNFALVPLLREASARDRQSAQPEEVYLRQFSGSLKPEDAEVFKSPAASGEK

Turning to `Oc1cc2c(cc1O)CN(C(=S)NCCc1ccc(Cl)cc1)CCC2` [Capsazepine, capsazepine], the IC50 in assay [1] (E-capsaicin as agonist) came to 194 ± 0.06 nM; in assay [1] (RTX as agonist) it was 140 ± 0.8 nM; in assay [2] (IC50 Capsazepine, VR1A stable cell line, RTX as agonist, N=4) it was 25 ± 0.26 nM; in assay [2] (read-out: IC50 Capsazepine), 60 ± 0.1 nM. Further, the “fold lower IC50 value with RTX as an agonist compared to capsaicin as an agonist” value in assay [2] (text does not say whether VR1 or VR1A is meant) was “approximately 5 fold”.
Turning to `C=C(C)[C@]12C[C@@H](C)[C@@]34O[C@](Cc5ccccc5)(O[C@@H]1[C@@H]3C=C(COC(=O)Cc1ccc(O)c(OC)c1)C[C@]1(O)C(=O)C(C)=C[C@@H]41)O2` [RTX, resiniferatoxin], the EC50 in assay [1] is 1.6 ± 0.17 nM; in assay [2], 5 ± 0.08 nM.

Values taken from patent publication US20060292639A1, “Splice variant of the vanilloid receptor VR1A” (Adolor Corporation, priority 2004, published 2006).
